“And” between values parts separate entries of the source, which are not always exact repeats. Equal entries are not always repeated. “Also recorded” adds a separate entry of the source.
Key:
[1] = Example 2B bleomycin-induced pulmonary fibrosis: body weight and survival; type: in vivo, C57BL/6 mice
Method: (§1) Experimental conditions used in this study are similar to the ones described in Example 2A. […] Mice were treated with bleomycin (BLM) on day 0 and controls received saline (SAL).
The effects of IPI-926 in body weight and survival that accompany bleomycin insult are shown in FIGS. 15 and 16, respectively.

[2] = Bleomycin-induced pulmonary fibrosis model in C57BL/6 mice (study INF-01): body weight and survival; type: in vivo
Method: (§2) Thirty-two C57/B6 mice were prospectively randomized into four equally sized groups of eight animals each. An additional four mice served as naïve controls. Pulmonary fibrosis was induced with a single dose of bleomycin (4 U/kg) given intra-nasally on Day 0. Animals' activity and weight were evaluated daily. IPI 926 or vehicle was given every other day from 10 days prior to bleomycin until sacrifice on Day 30, or IPI926 was given beginning on either Day 0 or Day 14 on alternate days until the end of the study. At the end of the study on Day 30, all mice were euthanized and bronchiolar lavage performed to enable an evaluation of the inflammatory infiltrate in the lungs and collect the fluid for possible cytokine evaluation. One lung from each animal was collected for histology, while the other was snap frozen and retained for possible additional analyses.
(§3) Bleomycin, a glycopeptides anti-cancer agent originally isolated from Streptomyces verticillus is currently approved for use against squamous cell carcinoma, testicular cancer and Hodgkin's disease. Pulmonary fibrosis is a significant toxicity associated with the use of bleomycin, occurring in a significant percentage of patients undergoing bleomycin therapy. In C57/B6 mice, pulmonary inflammation and subsequent fibrosis is reproducible following bleomycin treatment, and the severity of pulmonary fibrosis is dose-dependent with higher doses being used to evaluate short term inflammatory effects, while lower doses are used to study the longer term impact of pulmonary fibrosis. In this model, mice are given 4 U/kg of bleomycin intranasally and pulmonary fibrosis is evaluated histologically 30 days after the administration of the bleomycin.
Oral administration by gavage QOD for 30 days 40 mg/kg Administered volume varies by weight
Thirty-six (36) female C57B1/6 mice (Charles River Laboratories), aged 5 to 6 weeks, with a mean body weight of 19.7 g at study commencement, were used. Animals were individually numbered using an ear punch and housed in groups of eight animals per cage. Animals were acclimatized for 3 days prior to study commencement. During acclimatization, the animals were observed daily in order to reject animals that presented in poor condition.
Pulmonary fibrosis was induced with a single intra-nasal administration of bleomycin at 4 U/kg in 25 μL of saline. Animals were anesthetized by breathing isoflurane in a closed chamber (2-3% isoflurane 200-300 mls oxygen) to effect. When non-responsive to toe pinch, each animal was held in one hand in an upright position and the bleomycin placed in nares and the droplet watched until inhaled. […]
Animals were weighed and evaluated for respiratory distress daily. […]
All animals were weighed and evaluated for respiratory distress daily throughout this study. […]

[3] = system: pancreatic adenocarcinoma; test: KPC mouse model of pancreatic adenocarcinoma / pancreatic animal models; type: in vivo
[4] = system: white blood cells in bronchiolar lavage fluid; test: Bleomycin-induced pulmonary fibrosis model (INF-01): bronchiolar lavage fluid cell counts; type: in vivo, C57BL/6 mice; set-up: Bronchiolar lavage fluid counts WBC: unit not given here; settings: for Bronchiolar lavage fluid counts % lymph / Bronchiolar lavage fluid counts % monos / Bronchiolar lavage fluid counts % neutro / Bronchiolar lavage fluid counts WBC: individual animals
Method: as §2
At necropsy, the inflammatory infiltrated was evaluated by counting cells in the fluid collected following bronchiolar lavage. Bronchiolar lavage was performed by inserting a 20-gauge cannula into the trachea, which was tied in place with suture. The cannula was attached to a 1 mL syringe which was used to deliver and then recover 1 mL of sterile PBS. This fluid was then centrifuged to recover the cells and the resulting fluid saved for potential evaluation. Cell counts were performed on a HTI PCE-90vet automated veterinary hematology analyzer.
At sacrifice, BAL fluids were collected from all animals. The cells from these fluids were evaluated for differential white count. The fluids were retained for cytokine analysis.

[5] = system: pulmonary fibrosis induced by bleomycin; test: Example 2B bleomycin-induced pulmonary fibrosis: hydroxyproline; type: in vivo, C57BL/6 mice; settings: treatment begun on the day of bleomycin insult
Method: as §1

[6] = system: pulmonary fibrosis induced by bleomycin; test: Bleomycin-induced pulmonary fibrosis model (INF-01): lung histology scoring; type: in vivo, C57BL/6 mice; set-up: key to Chronic Inflammation (0-5): 0: None present; 1: Rare foci; minimal; 2: Scattered aggregates or mild diffuse inflammation; 3: Numerous aggregates or moderate diffuse inflammation; 4: More marked inflammation either scattered or diffuse; 5: More severe inflammation either scattered diffuse inflammation; settings: for pulmonary fibrosis and associated inflammation compared to the vehicle control group: 40 mg/kg, not statistically significant (Kruskal-Wallis); for mean interstitial fibrosis foci count: foci that fill a 10x objective field; for mean chronic inflammation score / mean interstitial fibrosis score: scale 0-5; for Chronic Inflammation (0-5) / Interstitial Fibrosis (0-5) / Number of Foci of Interstitial Fibrosis that Fill a 10x Objective Field: individual animals
Method: as §2, §3
Each lung sample was trimmed into 1-3 sections. Tissues were embedded in paraffin and sectioned at approximately 5 microns. Two slides for each lung were stained. One was stained with hematoxylin and eosin (H&E) and another serial section was stained with a trichrome stain. All slides were examined by a board-certified veterinary pathologist. Tissues were scored for chronic inflammation and interstitial fibrosis according to the criteria in Table 5 below. In addition the number of foci of interstitial fibrosis in the lung that filled a 10× objective field (100× total magnification) were counted and reported. Statistical analysis was performed with GraphPad Prism version 4.03 and included a Kruskal-Walis test followed by a Dunn's post-test comparing all groups to each other. Individual animal findings are listed herein in the Tables below.
Lungs were taken at sacrifice on Day 30 for analysis. Lungs were removed and partitioned in two halves. On half was fixed in 10% formalin, before embedding and sectioning. Slides made from each sample were stained with H&E or Masson's Trichrome. The other half of lung sample were snap-frozen in liquid nitrogen and stored at −80 C for future analysis of mRNA by QT-PCR and/or proteomic analysis.

[7] = system: experimental liver metastasis; test: Mouse model of experimental liver metastasis; type: in vivo; settings: prophylactic administration
[8] = system: Sonic Hedgehog (SHh) and Gli-1; test: Immunohistochemistry of lung samples from the bleomycin lung fibrosis study for SHh and Gli-1; type: in vivo, C57BL/6 mice
Method: I. IHC protocol to detect Gli1 on murine and human tissues: Rabbit anti-mouse Gli1 (Novus Biologicals NBP1-03294), Whole Rabit IgG2 Positive control: RMS, BCC
• 1. Dilute the Gli1, 1:200, in DaVinci Green Diluent. Add ratIgG2a, at same dilution, to the negative controls. Add a volume of 300 μl to each slide. • 2. Incubate for 1.5 hours at room temperature.
Rabbit anti-human SHh (Abcam# ab53281). Isotype control: Whole Rabbit IgG Positive control: Pancreatic xenograft Secondary: Rabbit-on-Rodent Polymer (Biocare Medical RMR622) for xenografts or Mach 2 (Biocare Medical RHRP520) for human tissue Wash buffer: PBS+0.5% Tween Citrate Retrieval buffer DaVinci Green Primary Ab diluent (Biocrae Medical PD900) DAB Enhancer (Zymed Cat. No. 00-2021)
• 1. Dilute the SHH, 1:2000 (optimized on the DAKO autostainer), in DaVinci Green Diluent. Add RabbitIgG, at same dilution, to the negative controls. Add a volume of 300 μl to each slide. • 2. Incubate for 90 minutes at room temperature.

[9] = Group 3: Qod, Day 0 to Day 30, individual animals
[10] = Group 2: Qod, Day −10 to Day 30
[11] = groups Day 0 to 30 or Day 14 to 30
[12] = all three treatments, Day-10 to Day 30 greatest effect

CC1=C2C[C@H]3[C@@H](CC[C@@H]4C[C@H](NS(C)(=O)=O)CC[C@@]43C)[C@@H]2CC[C@@]2(C1)O[C@@H]1C[C@H](C)CN[C@H]1[C@H]2C [IPI-926]
animal death / survival after bleomycin administration [1]: significantly abrogates the increase in animal death
body weight loss that accompanies bleomycin insult [1]: reduces the dramatic loss in body weight
Daily Animal Weights, Day 14 [2, 9]: 21.09
Daily Animal Weights, Day 27 [2, 9]: 21.09
animals that died or were euthanized ([2]; group treated from Day −10 to Day 30): sac'd
weight gain relative to vehicle controls ([2]; mouse, in vivo): reductions in weight gain relative to vehicle controls
desmoplastic infiltration ([3]; KPC mouse model): inhibition of desmoplastic infiltration
metastasis ([3]; KPC mouse model): decreased metastasis
survival ([3]; KPC mouse model): increased survival
desmoplastic component ([3]; pancreatic animal models): dramatic effect on the desmoplastic component
mean lymphocytes in bronchiolar lavage fluid ([4]; Day −10 to 30): 41%
mean monocytes in bronchiolar lavage fluid ([4]; Day −10 to 30): 1.5%
mean neutrophils in bronchiolar lavage fluid ([4]; Day −10 to 30): 48%
mean WBC count in bronchiolar lavage fluid ([4]; Day −10 to Day 30): 1.53 ×10^6 cells/μL
mean WBC count in bronchiolar lavage fluid ([4]; Days 0-30): 1.09 ×10^6 cells/μL
mean WBC count in bronchiolar lavage fluid ([4]; Days 14-20 (so in the source)): 0.79 ×10^6 cells/μL
Bronchiolar lavage fluid counts % lymph [4, 10]: 43% and 44% (2×) and 41% and 26% and 46%
Bronchiolar lavage fluid counts % monos [4, 10]: 4% (2×) and 6% (2×) and 8% and 3%
Bronchiolar lavage fluid counts % neutro [4, 10]: 43% and 41% and 48% and 60% and 49% and 47%
Bronchiolar lavage fluid counts WBC [4, 10]: 0.6 and 1.3 and 2.1 (2×) and 1.9 and 1.2
Bronchiolar lavage fluid counts % lymph ([4]; Group 3: Qod, Day 0 to Day 30): 41% and 45% and 46% (2×) and 40% and 56% and 51% and 49%
Bronchiolar lavage fluid counts % monos ([4]; Group 3: Qod, Day 0 to Day 30): 4% (4×) and 3% (2×) and 7% and 5%
Bronchiolar lavage fluid counts % neutro ([4]; Group 3: Qod, Day 0 to Day 30): 43% and 47% and 44% and 52% and 41% and 34% and 42% and 45%
Bronchiolar lavage fluid counts WBC ([4]; Group 3: Qod, Day 0 to Day 30): 1.3 (3×) and 0.1 and 0.9 and 1.5 and 1.1 and 1.2
Bronchiolar lavage fluid counts % lymph ([4]; Group 4: Qod, Day 14 to Day 30): 51% and 53% and 54% and 42% and 55% and 46% and 45% and 49%
Bronchiolar lavage fluid counts % monos ([4]; Group 4: Qod, Day 14 to Day 30): 3% (3×) and 9% and 4% and 1% and 2% and 11%
Bronchiolar lavage fluid counts % neutro ([4]; Group 4: Qod, Day 14 to Day 30): 42% and 28% and 41% and 50% and 35% and 49% and 43% and 45%
Bronchiolar lavage fluid counts WBC ([4]; Group 4: Qod, Day 14 to Day 30): 1.1 (2×) and 0.9 (3×) and 0.4 (2×) and 0.6
white cell count in bronchiolar lavage ([4]; all groups treated, greatest in Day 14 to Day 30 group): reductions in the number of white cells in the bronchiolar lavage; also recorded: Reductions in white cell count
mean lymphocytes in bronchiolar lavage fluid [4, 11]: 47-49%
mean neutrophils in bronchiolar lavage fluid [4, 11]: 42-44%
fibrosis as ug of hydroxproline per g of animal body weight [5]: reduces the fibrosis caused by bleomycin
pulmonary fibrosis and associated inflammation compared to the vehicle control group [6]: reduction in pulmonary fibrosis and associated inflammation
pulmonary fibrosis and associated inflammation compared to the vehicle control group ([6]; listed as IPI926): effective in reducing the histological features of bleomycin induced pulmonary fibrosis
mean interstitial fibrosis foci count ([6]; Day −10 to Day 30): 2.1
mean chronic inflammation score ([6]; Day −10 to Day 30): 1.0
mean interstitial fibrosis score ([6]; Day −10 to Day 30): 1.0
mean interstitial fibrosis foci count ([6]; Days 0 to 30): 3.4
mean chronic inflammation score ([6]; Days 0 to 30): 1.1
mean interstitial fibrosis score ([6]; Days 0 to 30): 1.1
mean interstitial fibrosis foci count ([6]; Days 14 to 30): 5.9
mean chronic inflammation score ([6]; Days 14 to 30): 1.6
mean interstitial fibrosis score ([6]; Days 14 to 30): 1.6
Chronic Inflammation (0-5) [6, 10]: 1
Interstitial Fibrosis (0-5) [6, 10]: 1 (1-6 foci that fill a 10x objective field)
Number of Foci of Interstitial Fibrosis that Fill a 10x Objective Field [6, 10]: 2 (2×) and 1 (3×) and 4 (2×)
Chronic Inflammation (0-5) ([6]; Group 3: Qod, Day 0 to Day 30): 1 (7×) and 2
Interstitial Fibrosis (0-5) ([6]; Group 3: Qod, Day 0 to Day 30): 1 (1-6 foci that fill a 10x objective field) (7×) and 2 (7-12 foci that fill a 10x objective field)
Number of Foci of Interstitial Fibrosis that Fill a 10x Objective Field ([6]; Group 3: Qod, Day 0 to Day 30): 2 (3×) and 10 and 1 (2×) and 4 and 5
Chronic Inflammation (0-5) ([6]; Group 4: Qod, Day 14 to Day 30): 1 (5×) and 3 (2×) and 2
Interstitial Fibrosis (0-5) ([6]; Group 4: Qod, Day 14 to Day 30): 1 (1-6 foci that fill a 10x objective field) (5×) and 3 (13-18 foci that fill a 10x objective field) (2×) and 2 (7-12 foci that fill a 10x objective field)
Number of Foci of Interstitial Fibrosis that Fill a 10x Objective Field ([6]; Group 4: Qod, Day 14 to Day 30): 2 (4×) and 14 and 17 and 7 and 1
Chronic Inflammation Scores compared to Vehicle (FIG. 7) ([6]; all three treatments, Day 0 to Day 30 greatest effect): reduce inflammation compared to the Vehicle control group
Interstitial Fibrosis Scores compared to Vehicle (FIG. 8) [6, 12]: reduce inflammation compared to the Vehicle control group
number of foci of interstitial fibrosis compared to Vehicle (FIG. 9) [6, 12]: reduce inflammation compared to the Vehicle control group
amount of lung fibrosis induced by bleomycin ([6]; d=−10, Mann-Whitney test, p<0.05): decreases the amount of lung fibrosis induced by bleomycin in a statistically significant manner
metastatic spread and survival [7]: dramatic effects on metastatic spread and survival
SHh immunoreactivity ([8]; d=−10, d=0, d=14): only IPI-926 administered at d=−10 appeared to have an effect on this signal
Gli-1 immunoreactivity in comparison to vehicle treatment ([8]; d=−10, d=0 and d=14): appears to decrease the Gli-1 immunoreactivity
